The data set in a line: in vitro. The settings on record: human, hela cells, % viability.

With `CC(C)C[C@H]1NC(=O)C2(C/C=C/C[C@@H]3COCC[C@@H]3NC1=O)CCN(C(=O)[C@@H](N)Cc1c[nH]c3ccccc13)CC2` [CBK292200], the viability at 28.5 h, 10 µM was 109%.

As for `CN1CCN(NC(=O)COc2ccc(-c3ccccc3)cc2)CC1` [CBK268117], the viability at 28.5 h, 10 µM amounted to 89.8%.

As for `CCOC(=O)c1ccc(-c2[nH]cnc2-c2c(C)cc(OC)cc2O)o1` [CBK026647], the viability at 28.5 h, 10 µM came out at 113%.

Regarding `O=C(CSc1nc2cc(Cl)ccc2[nH]1)Nc1ccccc1F` [CBK269916], the viability at 28.5 h, 10 µM came to 84.8%.

Take `CS(=O)(=O)c1ccc(CN2CCOC[C@H]2c2nc(-c3ccc(F)cc3)c[nH]2)cc1` [CBK289295]: the viability at 28.5 h, 10 µM worked out at 89.4%.

For `COCCN1CCN(c2cncc(-c3ccc(O)cc3)n2)CC1` [CBK126951T], the viability at 28.5 h, 10 µM amounted to 93.6%.

`Cc1cccc(-c2noc(CN(C(=O)c3ccc4c(c3)OCO4)C(C)C)n2)c1` [CBK268817]: the viability at 28.5 h, 10 µM came out at 98.1%.

On to `Cc1cnccc1-c1c[nH]nc1-c1cccc(CNS(=O)(=O)c2ccc(F)c(F)c2)c1` [CBK285627], for which the viability at 28.5 h, 10 µM was determined as 96%.

For the compound `COc1ccc(/C=C/C(=O)O)cc1S(=O)(=O)N1CCCC1` [CBK058388], the viability at 28.5 h, 10 µM came out at 93.5%.

On to `CNC(=O)CSc1nccc(C(F)(F)F)n1` [CBK107759], for which the viability at 28.5 h, 10 µM was 101%.

In the case of `CC(=O)N1CCC2(C/C=C/C[C@H]3CN(CCCc4ccccc4)CC[C@H]3NC(=O)CNC2=O)CC1` [CBK292140], the viability at 28.5 h, 10 µM was found to be 90.9%.

As for `COc1cccc2ncn(CCCn3cccn3)c(=O)c12` [CBK307094], the viability at 28.5 h, 10 µM turned out to be 89.7%.

Regarding `COc1ccc(-c2cncc(N3CCN(c4cccc5[nH]ccc45)CC3)n2)cc1` [CBK066087], the viability at 28.5 h, 10 µM amounted to 97.2%.

In the case of `COc1ccc(C=CC(=O)N(C)c2ccccc2C(=O)O)cc1` [CBK296135], the viability at 28.5 h, 10 µM turned out to be 106%.

As for `COC1CCCC(C(=O)N2CCC(c3onc4c3CCC4)CC2)C1` (centres unmarked) [CBK285519], the viability at 28.5 h, 10 µM was 103%.

As for `Cc1ccc(S(=O)(=O)NC(Cc2c[nH]c3ccccc23)C(=O)O)cc1` (centres unmarked) [CBK260966], the viability at 28.5 h, 10 µM worked out at 103%.

As to `Nc1nc2c3c(c(-c4ccccc4)nc2[nH]1)CCCC3` [CBK020648], the viability at 28.5 h, 10 µM was 78.2%.

With `CN1CCN(C(=O)C2CCN(S(=O)(=O)c3ccc4ccccc4c3)CC2)CC1` [CBK269504], the viability at 28.5 h, 10 µM turned out to be 88.1%.

Take `Cn1nnc(NC(=O)COc2ccc(C3CCCCC3)cc2)n1` [CBK266442]: the viability at 28.5 h, 10 µM is 95.9%.

Consider `CCCOc1ccc(-c2nnn(CC(=O)OCC)n2)cc1` [CBK068817], for which the viability at 28.5 h, 10 µM was 98.8%.

For the compound `Cc1cc(C)[n+]2c(n1)N(c1ccccc1)CC2` [CBK017327G], the viability at 28.5 h, 10 µM came to 80.7%.

For the compound `Cc1cccc(Nc2[nH]c3cc(C)ccc3c2[N+](=O)[O-])c1` [CBK266303], the viability at 28.5 h, 10 µM came out at 81.9%.

As for `O=C(Nc1nc(-c2cccs2)cs1)c1ccc(F)cc1` [CBK287327], the viability at 28.5 h, 10 µM came out at 86.7%.

On to `CNC(=O)C1(Cc2ccccc2-c2cccs2)CCN(C(=O)CCc2ccccc2)CC1` [CBK285900], for which the viability at 28.5 h, 10 µM was 108%.

Consider `Cc1cc(C)cc(N(C(C)C(=O)Nc2ccccc2-c2ccccc2)S(C)(=O)=O)c1` (centres unmarked) [CBK268770], for which the viability at 28.5 h, 10 µM worked out at 101%.

`C=CCn1c(C)c(C)n2c3c(=O)n(CCN4CCOCC4)c(=O)n(C)c3nc12` [CBK269778]: the viability at 28.5 h, 10 µM was 90.8%.

For the compound `CC(=O)Nc1ccc(CNC(=O)c2ccc[nH]2)cc1` [CBK304538], the viability at 28.5 h, 10 µM amounted to 87.1%.

Turning to `OCc1ccccc1-c1cncc(NCc2ccc3c(c2)OCO3)n1` [CBK065318], the viability at 28.5 h, 10 µM was determined as 89.2%.

Turning to `OCCn1ncc2c(SC3CCCCC3)ncnc21` [CBK269358], the viability at 28.5 h, 10 µM turned out to be 87.8%.

Regarding `CN1CCC(C(=O)NC2Cc3ccccc3C2)CC1` [CBK200263], the viability at 28.5 h, 10 µM came out at 118%.

`Cc1oc2c(c1C(=O)N(C)CCN1CCCCC1)CCCC2` [CBK281907]: the viability at 28.5 h, 10 µM came to 90.8%.

Take `O=C(NCC1COc2ccccc2O1)N1CCN(c2cc(C(F)(F)F)ccn2)CC1` (centres unmarked) [CBK156432]: the viability at 28.5 h, 10 µM stood at 88.2%.

In the case of `CCOC(=O)c1ccc(NC(=O)Cc2c(C(=O)O)nnn2-c2cccc(C(F)(F)F)c2)cc1` [CBK296932], the viability at 28.5 h, 10 µM is 106%.

For the compound `CCC(CNC(=O)c1ccoc1C)N1CCCC1` (centres unmarked) [CBK304798], the viability at 28.5 h, 10 µM was 88.9%.

For `OC(COc1cccc(Oc2ccccc2)c1)CN1CCN(c2ccccc2F)CC1` (centres unmarked) [CBK267468], the viability at 28.5 h, 10 µM was 95.5%.

On to `C=CCNc1nc(N)c(/C(N)=N\C#N)s1` [CBK019028], for which the viability at 28.5 h, 10 µM was 99.3%.

Take `CCN(CC)CCN/C=C1/C(=O)NC(=O)N(Cc2ccccc2)C1=O` [CBK261624]: the viability at 28.5 h, 10 µM (bulk resorufin, single well) turned out to be 88.9%.

For the compound `CC(=O)c1c(C)oc2ccc(N(C(C)=O)S(=O)(=O)c3ccc(C(=O)O)cc3)cc12` [CBK299790], the viability at 28.5 h, 10 µM worked out at 106%.

As for `CN1CCCC(NC(=O)CCCOc2ccccc2F)C1` (centres unmarked) [CBK282072], the viability at 28.5 h, 10 µM turned out to be 101%.

On to `CCCC(=O)Nc1ccc(-c2csc(NC(=O)C3CCCO3)n2)cc1` (centres unmarked) [CBK305854], for which the viability at 28.5 h, 10 µM amounted to 77.8%.

Consider `COCc1ccc(C(=O)N2CCC(Cc3ccccc3-c3cccs3)(C(N)=O)CC2)cc1` [CBK286276], for which the viability at 28.5 h, 10 µM turned out to be 102%.

For `CCn1c(CC2CCN(c3ncc(C#N)c(N)n3)CC2)nn(C)c1=O` [CBK306788], the viability at 28.5 h, 10 µM was 93.3%.

On to `CC(C)(c1ccc(Oc2cccc(N)c2)cc1)c1ccc(Oc2cccc(N)c2)cc1` [CBK260958], for which the viability at 28.5 h, 10 µM is 109%.

Consider `Cc1cc(-c2nn3c(-c4ccccc4)nnc3s2)c2ccccc2n1` [CBK267187], for which the viability at 28.5 h, 10 µM came out at 101%.

Turning to `Cc1nn(CCC(=O)NCc2ccco2)c(C)c1Cl` [CBK269961], the viability at 28.5 h, 10 µM worked out at 88.8%.

With `Cc1ccc(-n2sc(=O)n(CCc3ccccc3)c2=O)cc1` [CBK113496], the viability at 28.5 h, 10 µM is 110%.

Turning to `CCOc1ccc(C(O)Cn2c(=N)n(CCN3CCCCC3)c3ccccc32)cc1` (centres unmarked) [CBK262913C], the viability at 28.5 h, 10 µM worked out at 111%.

Consider `CN(C)CCCn1cccc1C=O` [CBK261993G], for which the viability at 28.5 h, 10 µM is 90.3%.

For the compound `Cc1nc(Nc2ccc(Cl)cc2)nc(OC2CCNCC2)n1` [CBK024848], the viability at 28.5 h, 10 µM came out at 90.5%.

Turning to `CCOc1c(CNCc2ccccn2)cccc1OC` [CBK268104C], the viability at 28.5 h, 10 µM worked out at 96.9%.

With `O=C(NCCCN1CCOCC1)Nc1cccc(Cl)c1Cl` [CBK016286], the viability at 28.5 h, 10 µM was 85.5%.

Consider `COc1c(O)ccc(/C=N\NC(=O)C2COc3cc4ccccc4cc3O2)c1[N+](=O)[O-]` (centres unmarked) [CBK262836], for which the viability at 28.5 h, 10 µM is 86.9%.

On to `CC(=O)Nc1ccc(S(N)(=O)=O)cc1Cl` [CBK028784], for which the viability at 28.5 h, 10 µM is 109%.

For the compound `Cn1nccc1CN(Cc1ccc(F)cc1)Cc1cccnc1` [CBK282261], the viability at 28.5 h, 10 µM stood at 101%.

As for `O=C(NCCCc1nc2ccccc2[nH]1)c1ccccc1` [CBK268429], the viability at 28.5 h, 10 µM came to 96.9%.

`CN(Cc1cn(-c2ccccc2)nc1-c1ccccc1)C(=O)CCc1n[nH]c(=S)[nH]c1=O` [CBK295630]: the viability at 28.5 h, 10 µM stood at 102%.

For `c1ccc(CCNc2cc(-c3cccc4ccccc34)ncn2)nc1` [CBK037762], the viability at 28.5 h, 10 µM was 94.5%.

With `COc1ccc(NC(=O)C(OC)c2ccccc2)cc1Cl` (centres unmarked) [CBK264098], the viability at 28.5 h, 10 µM turned out to be 95.2%.

Consider `Cc1ccnc(NS(=O)(=O)c2ccc(NC(=O)CSc3ccc(Cl)cc3)cc2)n1` [CBK265854], for which the viability at 28.5 h, 10 µM came out at 98.9%.

For the compound `O=C(O)COc1noc2nc3c(cc12)CCCCC3` [CBK269429], the viability at 28.5 h, 10 µM came to 97.7%.

With `COCC(=O)N1CCc2nc(-c3ccc(F)cc3)sc2C1` [CBK281673], the viability at 28.5 h, 10 µM was 107%.

As for `N#CCCN(C1CCCCC1)S(=O)(=O)c1cccc2nsnc12` [CBK009093], the viability at 28.5 h, 10 µM worked out at 94%.

In the case of `CCOC(=O)c1sc(NC(=O)CCNC(=O)c2ccccc2C(=O)O)c(C#N)c1C` [CBK295152], the viability at 28.5 h, 10 µM came to 96.1%.

Turning to `CCOC(=O)c1cccc(-c2cc3ccccc3o2)n1` [CBK149243], the viability at 28.5 h, 10 µM turned out to be 114%.

In the case of `Cn1c(=O)[nH]c(=O)c2c1nc(N/N=C/c1cc(Br)ccc1O)n2CCO` [CBK139415], the viability at 28.5 h, 10 µM was determined as 97.8%.

Regarding `C=C(C)Cn1c(Cc2ccccc2)nnc1SCC(C)C` [CBK200082], the viability at 28.5 h, 10 µM came out at 102%.

As for `O=C(O)c1c[nH]c2ccc(S(=O)(=O)N3CCOCC3)cc12` [CBK011237], the viability at 28.5 h, 10 µM came to 97.3%.

Regarding `c1ccc2cc(-c3ccc4c(c3)COC3(CCNCC3)O4)ccc2c1` [CBK060949], for the setting “bulk resorufin, single well”, the viability at 28.5 h, 10 µM worked out at 88%.

`CC(=O)N1CCC2(CC1)OCc1cc(-c3ccc(CCC(=O)O)cc3)ccc1O2` [CBK060971]: where the note is “bulk resorufin, single well”, the viability at 28.5 h, 10 µM was 90.3%.

Turning to `Cc1c(-c2ccc(Cl)cc2Cl)nc2ccccc2c1C(=O)NCc1ccc(S(N)(=O)=O)cc1` [CBK265387], the viability at 28.5 h, 10 µM is 101%.

`CCc1c(C)sc(NC(=O)CSc2nnnn2C)c1C(=O)OC` [CBK270312]: the viability at 28.5 h, 10 µM stood at 90.7%.

With `Cc1ccc(OCc2occc2C(=O)N2CCc3[nH]cnc3C2)cc1` [CBK307717], the viability at 28.5 h, 10 µM was found to be 85.6%.

`OCCN1CCN(C(c2cccs2)c2ccc3cccnc3c2O)CC1` (centres unmarked) [CBK296964]: the viability at 28.5 h, 10 µM was found to be 76.7%.

Take `Cc1cc(CNC(=O)C2=CC(=O)CC(C)(C)O2)no1` [CBK153281]: the viability at 28.5 h, 10 µM was determined as 104%.

In the case of `O=C(c1cc(S(=O)(=O)NCc2ccco2)c(Cl)cc1Cl)N1CCCC1` [CBK306076], the viability at 28.5 h, 10 µM came out at 87.8%.

`CN1CCN(C(=O)c2cccc(-c3nccnc3NCc3cccc(Cl)c3)c2)CC1` [CBK037048]: the viability at 28.5 h, 10 µM is 108%.

Consider `N#Cc1c(NC(=O)C(=O)NCc2ccccn2)sc2c1CCCC2` [CBK269360], for which the viability at 28.5 h, 10 µM worked out at 95.9%.

In the case of `O=c1[nH]c2ncc(-c3ccncc3)nc2n1CC1CC1` [CBK064539], the viability at 28.5 h, 10 µM was 90%.

Take `Nc1nnnn1CC(=O)N/N=C/c1cc2c(cc1[N+](=O)[O-])OCO2` [CBK262187]: the viability at 28.5 h, 10 µM was found to be 117%.

In the case of `CS(=O)(=O)N1CCc2cc(-c3cn4ccccc4n3)ccc21` [CBK285190], the viability at 28.5 h, 10 µM was determined as 85.6%.

Usually viability stands for a read-out of living cells in per cent, often relative to untreated cells.
